# pKd: −log10 of the molar value.
# What was measured:
# [1] = tested on: Salmonella Typhimurium arginine-binding protein STM4351 variant G89A with cpYFP inserted at the 200/203 site (STM4351-200/203-G89A-cpYFP), SEQ ID NO: 7; assay: Fluorescence response and titration of purified probe with arginine
# Experimental: (§1) • 1. Transform the pET28a-based arginine probe plasmid into BL21(DE3), culture overnight in an inverted manner, pick a clone from the plate into a 250 ml conical flask, place in a 37 °C shaker, culture at 220 rpm until OD = 0.4-0.8, add IPTG (1 M) at 1/1000 (v/v), and induce expression at 18 °C for 24-36 h. • 2. After induction expression, collect the bacteria by centrifugation at 4000 rpm for 30 minutes, add 50 mM phosphate buffer to resuspend the bacterial pellet, and ultrasonically disrupt until the bacteria are clarified. Centrifuge at 9600 rpm at 4 °C for 20 minutes. • 3. […] Take 100 µl of 5 µM protein solution, incubate at 37 °C for 5 min, add arginine respectively and mix to a final concentration of 100 mM, and measure the light absorption of the protein at 340 nm using a multifunctional fluorescence microplate reader. • 6. Take 100 µl of 1 µM fluorescent probe solution, incubate at 37 °C for 5 min, add arginine for titration, and measure the fluorescence intensity of the protein at 528 nm emission after 485 nm fluorescence excitation. The measurement of fluorescence excitation and emission of samples is completed using a multifunctional fluorescence microplate reader. • 7. Take 100 µl of 1 µM fluorescent probe solution, incubate at 37 °C for 5 min, add arginine, and measure the absorption spectrum and fluorescence spectrum of the probe protein. […]
# [2] = tested on: Salmonella Typhimurium arginine-binding protein STM4351 variant D91A with cpYFP inserted at the 200/203 site (STM4351-200/203-D91A-cpYFP), SEQ ID NO: 9; assay: Fluorescence response of purified probe to arginine; conditions: signal with 100 mM arginine divided by signal without arginine, Figure 2
# Experimental: as §1, with “3. The centrifuged supernatant is purified by a self-assembled nickel column affinity chromatography column to obtain the protein, and the protein after nickel column affinity chromatography is then passed through a self-assembled desalting column to obtain the protein dissolved in 20 mM MOPS buffer (pH 7.4) or phosphate buffer PBS. • 4. The purified arginine-binding protein mutant protein is identified by SDS-PAGE, and the probe is diluted with assay buffer (100 mM HEPES, 100 mM NaCl, pH 7.3) or phosphate buffer PBS to a final concentration of 5-10 µM protein solution.” for “3.”, “protein. The measurement of absorption spectrum and fluorescence spectrum of samples is completed by a spectrophotometer and a fluorescence spectrophotometer.” for “protein.”
# [3] = tested on: Salmonella Typhimurium arginine-binding protein STM4351 variant H140A with cpYFP inserted at the 200/203 site (STM4351-200/203-H140A-cpYFP), SEQ ID NO: 14; assay: as above; conditions: signal with 100 mM arginine divided by signal without arginine, Figure 2
# Experimental: as §1, with “3. The centrifuged supernatant is purified by a self-assembled nickel column affinity chromatography column to obtain the protein, and the protein after nickel column affinity chromatography is then passed through a self-assembled desalting column to obtain the protein dissolved in 20 mM MOPS buffer (pH 7.4) or phosphate buffer PBS. • 4. The purified arginine-binding protein mutant protein is identified by SDS-PAGE, and the probe is diluted with assay buffer (100 mM HEPES, 100 mM NaCl, pH 7.3) or phosphate buffer PBS to a final concentration of 5-10 µM protein solution.” for “3.”, “protein. The measurement of absorption spectrum and fluorescence spectrum of samples is completed by a spectrophotometer and a fluorescence spectrophotometer.” for “protein.”
# [4] = tested on: Salmonella Typhimurium arginine-binding protein STM4351 variant T32A with cpYFP inserted at the 200/203 site (STM4351-200/203-T32A-cpYFP), SEQ ID NO: 4; assay: as above; conditions: signal with 100 mM arginine divided by signal without arginine, Figure 2
# Experimental: as §1, with “3. The centrifuged supernatant is purified by a self-assembled nickel column affinity chromatography column to obtain the protein, and the protein after nickel column affinity chromatography is then passed through a self-assembled desalting column to obtain the protein dissolved in 20 mM MOPS buffer (pH 7.4) or phosphate buffer PBS. • 4. The purified arginine-binding protein mutant protein is identified by SDS-PAGE, and the probe is diluted with assay buffer (100 mM HEPES, 100 mM NaCl, pH 7.3) or phosphate buffer PBS to a final concentration of 5-10 µM protein solution.” for “3.”, “protein. The measurement of absorption spectrum and fluorescence spectrum of samples is completed by a spectrophotometer and a fluorescence spectrophotometer.” for “protein.”
# [5] = tested on: Salmonella Typhimurium arginine-binding protein STM4351 variant E37A with cpYFP inserted at the 200/203 site (STM4351-200/203-E37A-cpYFP), SEQ ID NO: 5; assay: Fluorescence response and titration of purified probe with arginine
# Experimental: (§2) • 1. Transform the pET28a-based arginine probe plasmid into BL21(DE3), culture overnight in an inverted manner, pick a clone from the plate into a 250 ml conical flask, place in a 37 °C shaker, culture at 220 rpm until OD = 0.4-0.8, add IPTG (1 M) at 1/1000 (v/v), and induce expression at 18 °C for 24-36 h. • 2. After induction expression, collect the bacteria by centrifugation at 4000 rpm for 30 minutes, add 50 mM phosphate buffer to resuspend the bacterial pellet, and ultrasonically disrupt until the bacteria are clarified. Centrifuge at 9600 rpm at 4 °C for 20 minutes. • 3. The centrifuged supernatant is purified by a self-assembled nickel column affinity chromatography column to obtain the protein, and the protein after nickel column affinity chromatography is then passed through a self-assembled desalting column to obtain the protein dissolved in 20 mM MOPS buffer (pH 7.4) or phosphate buffer PBS. • 4. The purified arginine-binding protein mutant protein is identified by SDS-PAGE, and the probe is diluted with assay buffer (100 mM HEPES, 100 mM NaCl, pH 7.3) or phosphate buffer PBS to a final concentration of 5-10 µM protein solution. Prepare arginine into a stock solution with a final concentration of 1 M using assay buffer (20 mM MOPS, pH 7.4) or phosphate buffer PBS. • 5. Take 100 µl of 5 µM protein solution, incubate at 37 °C for 5 min, add arginine respectively and mix to a final concentration of 100 mM, and measure the light absorption of the protein at 340 nm using a multifunctional fluorescence microplate reader. • 6. Take 100 µl of 1 µM fluorescent probe solution, incubate at 37 °C for 5 min, add arginine for titration, and measure the fluorescence intensity of the protein at 528 nm emission after 485 nm fluorescence excitation. The measurement of fluorescence excitation and emission of samples is completed using a multifunctional fluorescence microplate reader. • 7. Take 100 µl of 1 µM fluorescent probe solution, incubate at 37 °C for 5 min, add arginine, and measure the absorption spectrum and fluorescence spectrum of the probe protein. The measurement of absorption spectrum and fluorescence spectrum of samples is completed by a spectrophotometer and a fluorescence spectrophotometer.
# Screen the purified STM4351-cpYFP fusion protein for arginine response, and divide the detection signal of the fusion fluorescent protein containing 100 mM arginine by the detection signal of the fusion fluorescent protein without arginine. […]
# Purify the mutant STM4351-200/203-E37A-cpYFP with high response multiple and good specificity. […] Determination of emission spectrum: fix the excitation wavelengths at 420 nm and 485 nm respectively, record the emission spectrum at […]-540 nm, and read once every 5 nm.
# [6] = tested on: Salmonella Typhimurium arginine-binding protein STM4351 variant T138A with cpYFP inserted at the 200/203 site (STM4351-200/203-T138A-cpYFP), SEQ ID NO: 12; assay: as above
# Experimental: as §2, with “Prepare arginine into a stock solution with a final concentration of 1 M using assay buffer (20 mM MOPS, pH 7.4) or phosphate buffer PBS. • 5.” left out, “spectrophotometer. […]” for “spectrophotometer.”
# [7] = 500 mM arginine compared with 0 mM arginine, Figure 4
smiles,measurement,setting,value
"N=C(N)NCCC[C@H](N)C(=O)O [arginine, Arginine]","response to arginine, response multiple",[1]; Figure 3,about 1.29
same,pKd,"[1]; Figure 3, read-out: affinity for the substrate",4.63
same,response to arginine,[2],exceeding 3 times
same,response to arginine,[3],exceeding 3 times
same,response to arginine,[4],exceeding 3 times
same,fluorescence intensity under 420 nm excitation,[5]; [7],basically unchanged
same,fluorescence intensity under 485 nm excitation,[5]; [7],about 15.0 times
same,response to arginine,"[5]; arginine titration, Figure 3",about 15 times
same,pKd,"[5]; arginine titration, Figure 3, saturation at 10 mM arginine, read-out: affinity for the substrate",3.68 to 3.77
same,"response to arginine, response multiple","[6]; arginine titration, Figure 3",~3.14
same,pKd,"[6]; arginine titration, Figure 3, read-out: affinity for the substrate",3.72
same,response to arginine,"[6]; signal with 100 mM arginine divided by signal without arginine, Figure 2",exceeding 3 times
